Source: US9101638B2, “Boronic acid derivatives and therapeutic uses thereof” (Rempex Pharmaceuticals, Inc., priority 2013, dated 2015)

Assays:
ec302 (TEM-10) [1] = experiment: Potentiation of tigemonam, strain ec302; format: cell-based
ec302 (TEM-10) [2] = experiment: Potentiation of aztreonam, strain ec302; format: cell-based
OXA-48 = OXA-48 (Klebsiella pneumoniae, UniProt Q6XEC0); experiment: Inhibition of nitrocefin cleavage by purified OXA-48; format: biochemical; details: nitrocefin reporter substrate, purified enzyme; read-out: Ki (OXA-48, NCF)
Outline: (§1)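 Readout: nitrocefin hydrolysis, A490 recorded every 10 sec over 10 min. Enzyme and inhibitor (varied concentrations) preincubated 10 min, RT, in reaction buffer before substrate addition.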

EC1010 (CMY-6) [3] = experiment: Potentiation of aztreonam, strain EC1010; format: cell-based
KPC-2 = KPC-2 (Klebsiella pneumoniae, UniProt Q9F663); experiment: Inhibition of nitrocefin cleavage by purified KPC-2; format: biochemical; details: nitrocefin reporter substrate, purified enzyme; read-out: Ki (KPC-2, NCF)
Outline: as §1

KP1005 (CTX-M-14) = experiment: Potentiation of aztreonam, strain KP1005; format: cell-based
PAM1032/KPC-2 = experiment: Biapenem potentiation in PAM1032/KPC-2 (MexAB-OprM overexpressed); format: cell-based, Pseudomonas aeruginosa; details: BLI potency to decrease biapenem MIC 64-fold, 32 to 0.5 μg/ml; efflux proficient strain
Experimental: (§2) Efflux of BLIs from Pseudomonas aeruginosa by the MexAB-OprM efflux pump was also evaluated. […] Due to expression of KPC-2 both strains became resistant to biapenem. […] Potency of BLIs to potentiate biapenem in these strains was determined. […] The ratio of MPC64 values for each BLI in PAM1032/KPC-2 (efflux proficient) and PAM1154/KPC-2 (efflux deficient) was determined to generate the Efflux Index (EI).

KP1009 (CTX-M-15) = experiment: Potentiation of aztreonam, strain KP1009; format: cell-based
Neutrophil elastase = target: T1, Neutrophil elastase (Homo sapiens, UniProt P08246); experiment: Serine protease inhibition: neutrophil elastase; format: biochemical, mammalian; details: Table 8B; read-out: IC50 Neutrophil elastase
T1 construct: purchased Calbiochem 324681
T1 sequence (P08246 30-267): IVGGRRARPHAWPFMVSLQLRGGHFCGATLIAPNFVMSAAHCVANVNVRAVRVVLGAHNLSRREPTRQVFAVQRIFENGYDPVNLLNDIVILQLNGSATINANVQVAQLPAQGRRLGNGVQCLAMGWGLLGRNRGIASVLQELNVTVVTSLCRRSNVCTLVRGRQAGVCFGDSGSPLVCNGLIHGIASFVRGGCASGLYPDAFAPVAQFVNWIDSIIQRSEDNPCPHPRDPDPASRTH
Experimental: (§3) The effect of selected BLIs on the enzymatic activity of some common mammalian serine proteases was evaluated.
(§4) 50 μl of the diluted enzyme was mixed with 50 μl of inhibitor at various concentrations and 50 μl of corresponding buffer (Table 7). Reaction mixtures were incubated for 10 min at 37° C. Subsequently, 50 μl of corresponding substrate (Table 7) was added and absorbance or fluorescence was monitored for 30 min on SpectraMax M2 plate reader (Molecular Devices). 4-(2-Aminoethyl)benzenesulfonyl fluoride hydrochloride (AEBSF) and leupeptin were used as positive controls. Rates of reaction were calculated and presented relative to “no treatment” control.

Chymotrypsin = target: T2, Chymotrypsin (Bos taurus, UniProt P00766); experiment: Serine protease inhibition: chymotrypsin; format: biochemical, mammalian; details: Table 8A, class symbols; read-out: IC50 Chymotrypsin
T2 construct: purchased Calbiochem 230832
Experimental: as §3, §4

HtrA2 = target: T3, HtrA2 (Homo sapiens, UniProt O43464); experiment: Serine protease inhibition: HtrA2; format: biochemical, mammalian; details: Table 8B; read-out: IC50 HtrA2
T3 sequence (O43464 134-458): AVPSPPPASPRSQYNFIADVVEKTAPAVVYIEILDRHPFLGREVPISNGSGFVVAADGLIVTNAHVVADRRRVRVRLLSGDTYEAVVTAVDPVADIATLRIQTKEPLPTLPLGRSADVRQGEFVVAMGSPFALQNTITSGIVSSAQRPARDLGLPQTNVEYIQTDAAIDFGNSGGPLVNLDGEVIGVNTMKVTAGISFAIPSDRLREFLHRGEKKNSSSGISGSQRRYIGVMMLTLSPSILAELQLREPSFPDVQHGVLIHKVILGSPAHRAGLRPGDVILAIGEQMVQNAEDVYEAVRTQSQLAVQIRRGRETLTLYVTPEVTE
Experimental: as §3, §4

EC1010 (CMY-6) [4] = format: cell-based
Urokinase = target: T4, Urokinase (Homo sapiens, UniProt P00749); experiment: Serine protease inhibition: urokinase; format: biochemical, mammalian; details: Table 8A, class symbols; read-out: IC50 Urokinase
T4 construct: purchased Calbiochem 672112
Experimental: as §3, §4

PAM1154/KPC-2 = experiment: Biapenem potentiation in PAM1154/KPC-2 (MexAB-OprM lacking); format: cell-based, Pseudomonas aeruginosa
Experimental: as §2

CTX-M-14 = CTX-M-14 (Escherichia coli, UniProt Q9L5C7); experiment: Inhibition of nitrocefin cleavage by purified CTX-M-14; format: biochemical; details: nitrocefin reporter substrate, purified enzyme; read-out: Ki (CTX-M-14, NCF)
Outline: as §1

Sequence of KPC-2 (Q9F663 25-293, looked up, species assumed): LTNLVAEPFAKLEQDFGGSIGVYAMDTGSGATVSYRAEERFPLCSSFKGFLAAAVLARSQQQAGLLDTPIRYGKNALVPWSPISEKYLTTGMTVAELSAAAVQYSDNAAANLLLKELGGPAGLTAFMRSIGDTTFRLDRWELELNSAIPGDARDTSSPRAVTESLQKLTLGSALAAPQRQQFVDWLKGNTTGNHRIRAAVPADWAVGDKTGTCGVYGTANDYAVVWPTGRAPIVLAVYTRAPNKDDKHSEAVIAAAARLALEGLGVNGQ
Sequence of OXA-48 (Q6XEC0 23-265 limits assumed): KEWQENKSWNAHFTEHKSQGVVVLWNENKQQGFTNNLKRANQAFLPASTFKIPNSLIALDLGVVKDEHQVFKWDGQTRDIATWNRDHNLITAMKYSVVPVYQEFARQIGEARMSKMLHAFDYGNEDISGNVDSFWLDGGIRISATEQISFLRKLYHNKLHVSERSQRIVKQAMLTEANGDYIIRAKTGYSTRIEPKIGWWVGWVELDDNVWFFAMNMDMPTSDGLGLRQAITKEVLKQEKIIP
Sequence of CTX-M-14 (Q9L5C7 entry or part of it): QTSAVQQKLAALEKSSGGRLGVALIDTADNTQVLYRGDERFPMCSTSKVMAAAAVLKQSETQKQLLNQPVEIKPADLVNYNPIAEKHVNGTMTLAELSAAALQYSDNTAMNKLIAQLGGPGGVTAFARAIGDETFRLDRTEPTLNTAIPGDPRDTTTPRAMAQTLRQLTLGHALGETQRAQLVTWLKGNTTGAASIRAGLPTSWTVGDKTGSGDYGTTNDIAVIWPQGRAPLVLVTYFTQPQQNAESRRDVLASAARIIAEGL

Row | SMILES | TIG MPC4 TEM-10 ec302 (ec302 (TEM-10) [1]) | AZT MPC4 TEM-10 ec302 (ec302 (TEM-10) [2]) | Ki (OXA-48) [µM] | AZT MPC4 CMY-6 EC1010 (EC1010 (CMY-6) [3]) | Ki (KPC-2) [µM] | AZT MPC4 CTX-M-14 KP1005 (KP1005 (CTX-M-14)) | PAM1032/KPC-2 Biapenem MPC64 (PAM1032/KPC-2) | AZT MPC4 CTX-M-15 KP1009 (KP1009 (CTX-M-15)) | IC50 (Neutrophil elastase) [µM] | IC50 (Chymotrypsin) [µM] | IC50 (HtrA2) [µM] | TIG MPC4 CMY-6 EC1010 (EC1010 (CMY-6) [4]) | IC50 (Urokinase) [µM] | PAM1154/KPC-2 Biapenem MPC64 (PAM1154/KPC-2) | Ki (CTX-M-14) [µM]
1 | [N-]=[N+]=NCC(=O)N[C@H]1Cc2cccc(C(=O)O)c2OB1O [Compound 8, (R)-3-(2-azidoacetamido)-2-hydroxy-3,4-dihydro-2H-benzo[e][1,2]oxaborinine-8-carboxylic acid] | Y (key: X = MIC of less than 1 μg/mL; Y = MIC of 1 μg/mL to 10 μg/mL; Z = MIC of greater than 10 μg/mL) | Y (key: X = MIC of less than 1 μg/mL; Y = MIC of 1 μg/mL to 10 μg/mL; Z = MIC of greater than 10 μg/mL) | < 0.001 | X (key: X = MIC of less than 1 μg/mL; Y = MIC of 1 μg/mL to 10 μg/mL; Z = MIC of greater than 10 μg/mL) | > 0.01 | X (key: X = MIC of less than 1 μg/mL; Y = MIC of 1 μg/mL to 10 μg/mL; Z = MIC of greater than 10 μg/mL) | Y (Y = 10 to 40) | X (key: X = MIC of less than 1 μg/mL; Y = MIC of 1 μg/mL to 10 μg/mL; Z = MIC of greater than 10 μg/mL) | > 500 | > 800 | > 500 | X (key: X = MIC of less than 1 μg/mL; Y = MIC of 1 μg/mL to 10 μg/mL; Z = MIC of greater than 10 μg/mL) | > 800 | X (key: X = Less than 10; Y = 10 to 40; Z Greater than 40) | 
2 | Nc1nnc(SCC(=O)N[C@H]2Cc3cccc(C(=O)O)c3OB2O)s1 [Compound 5, (R)-3-(2-(5-amino-1,3,4-thiadiazol-2-ylthio)acetamido)-2-hydroxy-3,4-dihydro-2H-benzo[e][1,2]oxaborinine-8-carboxylic acid] | Y (key: X = MIC of less than 1 μg/mL; Y = MIC of 1 μg/mL to 10 μg/mL; Z = MIC of greater than 10 μg/mL) | Y (key: X = MIC of less than 1 μg/mL; Y = MIC of 1 μg/mL to 10 μg/mL; Z = MIC of greater than 10 μg/mL) |  | X (key: X = MIC of less than 1 μg/mL; Y = MIC of 1 μg/mL to 10 μg/mL; Z = MIC of greater than 10 μg/mL) | > 0.01 | X (key: X = MIC of less than 1 μg/mL; Y = MIC of 1 μg/mL to 10 μg/mL; Z = MIC of greater than 10 μg/mL) | Y (Y = 10 to 40) | X (key: X = MIC of less than 1 μg/mL; Y = MIC of 1 μg/mL to 10 μg/mL; Z = MIC of greater than 10 μg/mL) | > 500 | > 800 | > 500 | X (key: X = MIC of less than 1 μg/mL; Y = MIC of 1 μg/mL to 10 μg/mL; Z = MIC of greater than 10 μg/mL) | > 800 | X (key: X = Less than 10; Y = 10 to 40; Z Greater than 40) | 0.001 to 0.01
